Consider four compounds from patent US4956343A, “Control of insects by Roseotoxin B” (priority 1988, dated 1990).

Square brackets hold non-standard residues; d marks the D form. Peptide text beside a SMILES is read from it. dLac(3-vinyl) = C=CC[C@@H](O)C(=O)O; dHica = CC(C)C[C@@H](O)C(=O)O; NMeV = CN[C@H](C(=O)O)C(C)C; NMeA = CN[C@@H](C)C(=O)O; βAla = NCCC(=O)O

One data set has as its system silk worm larvae. As to conditions: cited from earlier work.
In data set [1] the test system is mice. Nature of the data set: Toxicity to mice by intraperitoneal injection. Particulars: ratio of lethal doses.
Data set [2] relates to mice. Particulars: intraperitoneal injection; cited from earlier work.
The subject of the next data set is Spodoptera frugiperda. Nature of the data set: Insecticidal activity, diet incorporation, neonate fall armyworm larvae. In kind it is in vivo. Particulars: 2.5 ppm in diet; for Mortality: neonate larvae fed 1 week; for Wt. reductions: survivors after 1 week. On the procedure:
(§1) Insects. Neonate larvae of Heliothis zea and Spodoptera frugiperda were used for all assays. They were obtained from laboratory colonies reared on pinto bean-based diet at 27°±1° C., 40±10% relative humidity, and a 14:10 light:dark photoperiod.
(§2) The diet used to rear the insects was based on a standard pinto bean diet for many species of lepidoptera and contained the following ingredients: 120 g dried pinto beans, 43 g wheat germ, 28 g brewer's yeast, 8 g Vanderzant's vitamin mix, 2.8 g ascorbic acid, 1.75 g methyl paraben, 0.9 g sorbic acid, 12 g agar, 1 ml formaldehyde (38%), 1.5 ml of propionic-phosphoric acid solution (42% propionic acid, 4.2% phosphoric acid), and 550 ml water. All dry diet ingredients (except for the pinto beans) were purchased from U.S. Biochemicals Corp. Before use, the beans were soaked in water until saturated. The agar was added to 250 ml of water and brought to a boil. The other ingredients were blended in a Waring blender until uniformly mixed. The hot agar was added, and blending continued until all ingredients were uniformly mixed.
(§3) The pinto bean-based diet was prepared and added in 5-ml quantities to test tubes. The test tubes were held at 60° C. until chemicals were incorporated to prevent solidification of the diet. The roseotoxin B was added in 125 μl of acetone to the liquid diet upon removal from the water bath to give a final concentration of 250-2.5 ppm. The chemical was incorporated into the diets by blending vigorously with a vortex mixer for 20 sec. Preliminary observations with colored solutions of both water and acetone indicated uniform incorporation by this method. The diets were dispensed into culture plates, and allowed to cool to room temperature. To remove the potentially toxic acetone, the diets were placed in a fume hood for ca. 20 min until slight darkening occurred. The diets were cut into approximately equal sections, and each section was placed into a well of a 24-well immunoassay plate. A single neonate H. zea or S. frugiperda larvae was added to each well. To prevent desiccation of the diet, the plate was covered by a sheet of parafilm, a sheet of cardboard, and the plastic cover. The cover was secured by two rubber bands, and groups of plates were placed in two polyethylene bags held closely by rubber bands. The plates were held under the same conditions used to rear the insects. Mortality was checked at 2, 4, and 7 days, and the surviving larvae were weighed after 7 days. Each chemical set was tested on a total of 40 larvae.
(§4) Mortality values are based on two replicates of ca. 20 insects each, whil
(§5) weight reductions are based on survivors of mortality tests. All chemical
(§6) were incorporated into insect diets, and fed to neonate larvae for 1 week

The next data set relates to Heliothis zea. Nature of the data set: Insecticidal activity, diet incorporation, neonate corn earworm larvae. In kind it is in vivo. Particulars: 2.5 ppm in diet; for Mortality: neonate larvae fed 1 week; for Wt. reductions: survivors after 1 week. On the procedure: as §1, §2, §3, §4, §5, §6

Consider `CC[C@H](C)[C@@H]1NC(=O)[C@@H]2CCCN2C(=O)[C@@H](CC(C)C)OC(=O)CCNC(=O)[C@H](C)N(C)C(=O)[C@H](C(C)C)N(C)C1=O` [Destruxin B] (cyclo([dHica]PI[NMeV][NMeA][βAla])), for which the “Dose causing death by injection” value in the data set with silk worm larvae is 0.34 µg/g. Moreover, in the data set with mice [1], the “Mammalian toxicity relative to roseotoxin B” value is on record as “about 10 times”. Also, the “Dose that killed all test mice” value in the data set with mice [2] is recorded as 16.9 mg/kg.
In the data set with Spodoptera frugiperda, `CCOC(=O)CC(SP(=S)(OC)OC)C(=O)OCC` (centres unmarked) [Malathion] showed a Mortality of 30% and a Wt. reductions of 45%. Further, in the data set on Heliothis zea, the Mortality was found to be 5.5% and the Wt. reductions turned out to be 27%.
In the case of `C=CC[C@H]1OC(=O)CCNC(=O)[C@H](C)N(C)C(=O)[C@H](C(C)C)N(C)C(=O)[C@H]([C@@H](C)CC)NC(=O)[C@@H]2CCCN2C1=O` [destruxin A] (cyclo([dLac(3-vinyl)]PI[NMeV][NMeA][βAla])), in the data set on silk worm larvae, the “Dose causing death by injection” value is 0.28 µg/g. Moreover, the “Mammalian toxicity relative to roseotoxin B” value with mice [1] was “approximately 100 times”. For the same compound, the “Dose that killed all test mice” value with mice [2] is on record as 1.35 mg/kg.
For `CC1(C)C(C=C(Cl)Cl)C1C(=O)OCc1cccc(Oc2ccccc2)c1` (centres unmarked) [Permethrin], the Mortality in the data set on Spodoptera frugiperda worked out at 35%; in the data set with Heliothis zea, 17%. Besides, the figures for the Wt. reductions in the data set on Spodoptera frugiperda and in the data set with Heliothis zea were 94% and 81%, respectively.
